# Measurements published in patent publication US9890138B2, “Diaminopyrimidine derivatives and processes for the preparation thereof” (YUHAN CORPORATION, priority 2011, dated 2018).
# Structures can show the parent of a compound that is named as a salt.
# Target: T1, human 5-HT4(a) (Homo sapiens, UniProt Q13639)
# T1 construct: host or cells: GeneBlAzer HTR4-CRE-bla CHO-K1 cells
# Assay: Evaluation of agonistic activity in CHO-K1 cells expressing human 5-HT4(a) (GeneBlAzer HTR4-CRE-bla CHO-K1, beta-lactamase reporter)
# Type: cell-based
# Details: CHO-K1 cells stably expressing human 5-HT4(a)
# In short: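 GeneBlAzer HTR4-CRE-bla CHO-K1 cells, 10^4/well overnight, exposed 5 h to compounds at 8 concentrations in medium with 1% DMSO in the added solution. β-lactamase substrate 2 h in dark; 410 nm excitation, 465/535 nm emission ratio; EC50 by non-linear regression.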
# T1 sequence (Q13639 1-387 isoform Q13639-2): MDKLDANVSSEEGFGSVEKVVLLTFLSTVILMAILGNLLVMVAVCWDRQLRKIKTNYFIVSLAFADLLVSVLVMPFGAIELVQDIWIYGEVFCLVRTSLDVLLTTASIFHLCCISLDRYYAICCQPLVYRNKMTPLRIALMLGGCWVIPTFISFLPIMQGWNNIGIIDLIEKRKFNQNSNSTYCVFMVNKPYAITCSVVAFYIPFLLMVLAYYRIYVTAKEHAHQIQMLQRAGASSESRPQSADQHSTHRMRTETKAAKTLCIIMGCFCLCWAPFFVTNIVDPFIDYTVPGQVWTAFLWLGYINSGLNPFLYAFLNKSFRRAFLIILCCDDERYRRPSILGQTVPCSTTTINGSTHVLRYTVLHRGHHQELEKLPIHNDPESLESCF
row,EC50,Molecule
1,0.0029 nM,"CCCc1cc(N2CC[C@H](NCC)C2)nc(Nc2ccc(F)c(C(F)(F)F)c2)n1 [Example 491, (S)-4-[3-(ethylamino)pyrrolidin-1-yl]-N-[4-fluoro-3-(trifluoromethyl)phenyl]-6-propylpyrimidin-2-amine hydrochloride]"
2,0.019 nM,"CCCCc1cc(N2CC[C@H](NC(C)=O)C2)nc(Nc2ccc(C)c(C#N)c2)n1 [Example 492, (S)-N-{1-[6-butyl-2-(3-cyano-4-methylphenylamino)pyrimidin-4-yl]pyrrolidin-3-yl}acetamide hydrochloride]"
3,0.024 nM,"CCCc1cc(N2CC[C@H](NC(C)=O)C2)nc(Nc2ccc(C)c(N)c2)n1 [Example 493, (S)-N-{1-[2-(3-amino-4-methylphenylamino)-6-propylpyrimidin-4-yl]pyrrolidin-3-yl}acetamide hydrochloride]"

row,Molecule,EC50
1,(S)-2-{1-[2-(indolin-6-ylamino)-6-propylpyrimidin-4-yl]pyrrolidin-2-yl}methanol [Example 217],0.23 nM
2,(S)-3-amino-5-[4-(3-aminopyrrolidin-1-yl)-6-propylpyrimidin-2-amino]benzonitrile [Example 362],0.0021 nM
